Source: paper PMC10507085, “Pharmacological inhibition of TBK1/IKKε blunts immunopathology in a murine model of SARS-CoV-2 infection” (Nature Communications, 2023)

Key:
Assay in all cases: biochemical
Set-up in all cases: KINOMEscan competition binding, DNA-tagged kinase against immobilised ligand, qPCR read-out
Details in all cases: read-out: Percent Control
FGFR2 = FGFR2 (Homo sapiens, UniProt P21802)
IRAK1 = IRAK1 (Homo sapiens, UniProt P51617)
TNK2 = TNK2 (Homo sapiens, UniProt Q07912)
EPHA2 = EPHA2 (Homo sapiens, UniProt P29317)
MATK = MATK (Homo sapiens, UniProt P42679)
DCLK3 = DCLK3 (Homo sapiens, UniProt Q9C098)
WNK1 = WNK1 (Homo sapiens, UniProt Q9H4A3)
HIPK1 = HIPK1 (Homo sapiens, UniProt Q86Z02)
PRKAA1 = PRKAA1 (Homo sapiens, UniProt Q13131)
IKBKE = IKBKE (Homo sapiens, UniProt Q14164)
PKN1 = PKN1 (Homo sapiens, UniProt Q16512)
TBK1 = TBK1 (Homo sapiens, UniProt Q9UHD2)
FGFR4 = FGFR4 (Homo sapiens, UniProt P22455)
CDKL5 = CDKL5 (Homo sapiens, UniProt O76039)
CLK4 = CLK4 (Homo sapiens, UniProt Q9HAZ1)
TAOK2 = TAOK2 (Homo sapiens, UniProt Q9UL54)
CIT = CIT (Homo sapiens, UniProt O14578)
PI4KB = PI4KB (Homo sapiens, UniProt Q9UBF8)
CDK4-cyclinD1 = CDK4-cyclinD1 (Homo sapiens, UniProt P11802)
EPHB6 = EPHB6 (Homo sapiens, UniProt O15197)

Sequence of MATK (P42679 whole entry): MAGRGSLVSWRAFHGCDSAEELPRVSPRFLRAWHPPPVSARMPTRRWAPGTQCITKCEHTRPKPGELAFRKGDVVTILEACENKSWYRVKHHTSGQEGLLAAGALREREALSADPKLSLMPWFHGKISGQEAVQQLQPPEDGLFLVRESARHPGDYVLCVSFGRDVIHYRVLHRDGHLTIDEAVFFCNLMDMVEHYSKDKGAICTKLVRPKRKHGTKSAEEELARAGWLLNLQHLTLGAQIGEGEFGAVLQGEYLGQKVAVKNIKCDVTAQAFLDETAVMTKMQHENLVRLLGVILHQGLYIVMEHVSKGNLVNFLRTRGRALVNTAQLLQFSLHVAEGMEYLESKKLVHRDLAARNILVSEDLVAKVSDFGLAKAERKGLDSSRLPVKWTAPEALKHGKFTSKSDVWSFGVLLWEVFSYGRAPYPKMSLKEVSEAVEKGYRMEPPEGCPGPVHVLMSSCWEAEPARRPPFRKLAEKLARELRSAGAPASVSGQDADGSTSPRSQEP
Sequence of DCLK3 (Q9C098 whole entry): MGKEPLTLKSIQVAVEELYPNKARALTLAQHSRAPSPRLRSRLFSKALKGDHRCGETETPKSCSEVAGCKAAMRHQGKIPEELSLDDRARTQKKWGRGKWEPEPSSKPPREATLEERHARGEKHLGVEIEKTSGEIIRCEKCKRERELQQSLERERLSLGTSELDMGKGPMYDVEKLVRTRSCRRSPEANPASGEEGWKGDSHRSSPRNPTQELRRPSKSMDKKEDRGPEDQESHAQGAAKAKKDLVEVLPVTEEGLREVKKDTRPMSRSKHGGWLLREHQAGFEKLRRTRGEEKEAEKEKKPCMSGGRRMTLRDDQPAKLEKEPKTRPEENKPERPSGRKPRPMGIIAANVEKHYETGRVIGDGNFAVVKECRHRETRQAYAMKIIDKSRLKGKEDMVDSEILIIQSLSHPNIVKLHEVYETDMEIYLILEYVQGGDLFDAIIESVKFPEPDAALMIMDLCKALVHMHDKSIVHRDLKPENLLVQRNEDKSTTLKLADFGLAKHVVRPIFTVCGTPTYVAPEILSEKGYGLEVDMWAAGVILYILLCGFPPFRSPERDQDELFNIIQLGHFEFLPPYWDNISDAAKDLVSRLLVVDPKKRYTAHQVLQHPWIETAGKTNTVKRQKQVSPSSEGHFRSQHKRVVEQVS
Sequence of FGFR4 (P22455 whole entry): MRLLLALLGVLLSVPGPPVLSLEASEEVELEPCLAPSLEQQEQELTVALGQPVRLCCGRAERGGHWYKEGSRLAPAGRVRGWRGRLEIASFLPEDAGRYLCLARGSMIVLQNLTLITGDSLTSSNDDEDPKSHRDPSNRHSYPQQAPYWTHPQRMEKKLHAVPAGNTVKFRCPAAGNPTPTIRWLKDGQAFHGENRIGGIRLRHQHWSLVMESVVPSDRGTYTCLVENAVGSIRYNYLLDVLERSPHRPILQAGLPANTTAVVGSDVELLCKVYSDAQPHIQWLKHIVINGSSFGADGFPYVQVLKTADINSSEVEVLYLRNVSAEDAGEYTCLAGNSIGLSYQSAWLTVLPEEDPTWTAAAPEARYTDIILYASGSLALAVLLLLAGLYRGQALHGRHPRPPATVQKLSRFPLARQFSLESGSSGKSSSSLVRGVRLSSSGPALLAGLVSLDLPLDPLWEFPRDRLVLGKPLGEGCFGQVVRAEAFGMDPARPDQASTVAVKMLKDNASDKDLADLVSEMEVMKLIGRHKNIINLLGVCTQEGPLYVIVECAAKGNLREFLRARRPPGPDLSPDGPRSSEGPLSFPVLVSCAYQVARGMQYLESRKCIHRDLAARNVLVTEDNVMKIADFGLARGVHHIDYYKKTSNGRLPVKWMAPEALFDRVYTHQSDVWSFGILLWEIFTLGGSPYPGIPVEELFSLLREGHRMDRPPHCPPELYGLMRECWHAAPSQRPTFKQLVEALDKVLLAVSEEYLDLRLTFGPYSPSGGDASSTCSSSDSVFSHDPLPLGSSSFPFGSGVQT
Sequence of CLK4 (Q9HAZ1 whole entry): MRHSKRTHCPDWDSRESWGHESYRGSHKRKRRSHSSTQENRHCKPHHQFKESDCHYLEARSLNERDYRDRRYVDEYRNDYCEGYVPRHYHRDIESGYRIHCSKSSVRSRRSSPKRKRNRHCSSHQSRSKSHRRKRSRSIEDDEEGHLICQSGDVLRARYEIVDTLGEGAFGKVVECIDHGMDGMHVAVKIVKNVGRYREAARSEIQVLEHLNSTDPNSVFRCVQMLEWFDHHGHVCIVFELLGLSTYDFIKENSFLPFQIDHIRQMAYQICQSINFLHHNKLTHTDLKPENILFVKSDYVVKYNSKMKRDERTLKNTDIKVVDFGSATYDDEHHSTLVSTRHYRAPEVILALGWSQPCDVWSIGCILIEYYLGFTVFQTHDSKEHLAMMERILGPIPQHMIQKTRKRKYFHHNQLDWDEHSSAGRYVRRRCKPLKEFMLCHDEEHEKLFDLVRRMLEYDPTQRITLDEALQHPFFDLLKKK
Sequence of FGFR2 (P21802 whole entry): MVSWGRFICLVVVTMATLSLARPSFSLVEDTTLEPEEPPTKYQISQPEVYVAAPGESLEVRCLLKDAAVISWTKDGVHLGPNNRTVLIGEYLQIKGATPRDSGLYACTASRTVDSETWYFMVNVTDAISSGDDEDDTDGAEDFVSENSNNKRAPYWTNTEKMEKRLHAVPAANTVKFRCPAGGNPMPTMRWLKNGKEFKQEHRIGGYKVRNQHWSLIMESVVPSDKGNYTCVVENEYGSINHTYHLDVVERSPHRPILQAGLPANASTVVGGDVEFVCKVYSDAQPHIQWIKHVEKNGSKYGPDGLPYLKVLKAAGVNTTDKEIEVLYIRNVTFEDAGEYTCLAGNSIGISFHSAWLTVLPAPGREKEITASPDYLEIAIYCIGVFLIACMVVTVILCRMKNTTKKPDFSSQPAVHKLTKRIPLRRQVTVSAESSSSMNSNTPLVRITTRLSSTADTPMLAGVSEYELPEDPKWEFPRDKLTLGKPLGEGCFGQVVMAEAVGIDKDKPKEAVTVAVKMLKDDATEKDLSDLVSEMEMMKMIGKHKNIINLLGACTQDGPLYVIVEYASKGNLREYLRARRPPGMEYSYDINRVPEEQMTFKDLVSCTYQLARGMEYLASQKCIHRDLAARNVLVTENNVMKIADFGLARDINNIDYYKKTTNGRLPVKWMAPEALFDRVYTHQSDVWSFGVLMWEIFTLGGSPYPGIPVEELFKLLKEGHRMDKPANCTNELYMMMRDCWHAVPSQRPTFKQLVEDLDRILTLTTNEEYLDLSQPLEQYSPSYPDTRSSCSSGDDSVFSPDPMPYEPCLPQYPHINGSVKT
Sequence of TBK1 (Q9UHD2 whole entry): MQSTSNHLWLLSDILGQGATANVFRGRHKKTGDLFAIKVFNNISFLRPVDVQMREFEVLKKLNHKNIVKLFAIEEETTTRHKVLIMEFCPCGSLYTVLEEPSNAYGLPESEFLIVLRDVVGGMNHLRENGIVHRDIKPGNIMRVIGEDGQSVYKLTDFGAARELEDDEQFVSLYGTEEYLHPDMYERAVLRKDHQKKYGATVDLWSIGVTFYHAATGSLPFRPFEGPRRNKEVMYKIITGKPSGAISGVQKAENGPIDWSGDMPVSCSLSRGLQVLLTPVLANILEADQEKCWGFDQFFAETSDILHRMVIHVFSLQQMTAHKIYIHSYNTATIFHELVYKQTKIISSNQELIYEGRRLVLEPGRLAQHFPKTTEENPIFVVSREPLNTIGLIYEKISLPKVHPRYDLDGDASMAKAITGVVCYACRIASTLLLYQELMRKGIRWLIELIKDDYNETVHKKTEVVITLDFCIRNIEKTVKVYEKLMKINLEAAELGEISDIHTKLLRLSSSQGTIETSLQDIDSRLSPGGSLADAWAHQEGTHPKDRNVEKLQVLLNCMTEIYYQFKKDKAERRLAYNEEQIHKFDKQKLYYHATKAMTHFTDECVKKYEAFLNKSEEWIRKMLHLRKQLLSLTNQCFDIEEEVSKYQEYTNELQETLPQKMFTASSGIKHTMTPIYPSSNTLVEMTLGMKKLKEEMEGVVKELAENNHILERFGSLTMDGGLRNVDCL
Sequence of CDK4-cyclinD1 (P11802 whole entry): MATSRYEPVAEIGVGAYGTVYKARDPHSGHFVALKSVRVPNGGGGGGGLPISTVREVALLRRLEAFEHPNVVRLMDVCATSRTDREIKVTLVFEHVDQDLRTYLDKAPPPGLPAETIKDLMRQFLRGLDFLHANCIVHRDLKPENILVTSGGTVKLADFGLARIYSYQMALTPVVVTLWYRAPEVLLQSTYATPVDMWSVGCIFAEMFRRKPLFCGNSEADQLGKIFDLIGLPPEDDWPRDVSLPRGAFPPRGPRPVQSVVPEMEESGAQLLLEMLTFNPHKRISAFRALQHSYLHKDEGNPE
Sequence of CDK4-cyclinD1 (P24385 whole entry partner): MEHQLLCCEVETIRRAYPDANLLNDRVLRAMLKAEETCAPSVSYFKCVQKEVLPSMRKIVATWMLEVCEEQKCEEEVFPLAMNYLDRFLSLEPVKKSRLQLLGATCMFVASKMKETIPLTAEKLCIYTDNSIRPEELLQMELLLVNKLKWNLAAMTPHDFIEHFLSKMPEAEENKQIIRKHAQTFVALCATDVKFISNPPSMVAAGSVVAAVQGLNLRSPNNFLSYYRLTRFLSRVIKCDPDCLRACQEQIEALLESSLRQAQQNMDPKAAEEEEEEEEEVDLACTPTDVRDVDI

SMILES: Oc1ccc(C2=Cc3ccc(O)cc3OC2)cc1 [compound 1, idronoxil]
- remaining binding at 10 µM (FGFR2): 80%
- remaining binding at 10 µM (IRAK1): 80%
- remaining binding at 10 µM (TNK2): 91%
- remaining binding at 10 µM (EPHA2): 78%
- remaining binding at 10 µM (MATK): 61%
- remaining binding at 10 µM (DCLK3): 92%
- remaining binding at 10 µM (WNK1): 83%
- remaining binding at 10 µM (HIPK1): 65%
- remaining binding at 10 µM (PRKAA1): 100%
- remaining binding at 10 µM (IKBKE): 65%
- remaining binding at 10 µM (PKN1): 66%
- remaining binding at 10 µM (TBK1): 99%
- remaining binding at 10 µM (FGFR4): 95%
- remaining binding at 10 µM (CDKL5): 97%
- remaining binding at 10 µM (CLK4): 36%
- remaining binding at 10 µM (TAOK2): 90%
- remaining binding at 10 µM (CIT): 62%
- remaining binding at 10 µM (PI4KB): 63%
- remaining binding at 10 µM (CDK4-cyclinD1): 94%
- remaining binding at 10 µM (EPHB6): 53%
